Assay [1] deals with T1, glutathione-S-transferase-labeled FXR human protein (Homo sapiens, UniProt Q96RI1).
T1 construct: purchased Invitrogen
T1 sequence (Q96RI1 1-486): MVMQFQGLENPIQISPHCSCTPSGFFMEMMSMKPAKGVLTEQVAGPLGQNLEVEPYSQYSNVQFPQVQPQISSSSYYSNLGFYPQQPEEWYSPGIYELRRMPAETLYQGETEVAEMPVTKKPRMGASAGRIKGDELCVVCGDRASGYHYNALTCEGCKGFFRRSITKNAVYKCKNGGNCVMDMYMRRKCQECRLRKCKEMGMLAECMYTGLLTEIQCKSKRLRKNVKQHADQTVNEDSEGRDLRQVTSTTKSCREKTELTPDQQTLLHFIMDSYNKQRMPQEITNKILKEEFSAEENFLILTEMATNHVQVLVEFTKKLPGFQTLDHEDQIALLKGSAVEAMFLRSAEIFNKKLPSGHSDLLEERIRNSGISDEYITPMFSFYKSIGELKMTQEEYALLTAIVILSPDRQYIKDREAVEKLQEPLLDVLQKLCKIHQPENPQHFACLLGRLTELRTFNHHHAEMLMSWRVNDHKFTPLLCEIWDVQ
Description: FXR biochemical experiment (alphascreen, coactivator recruitment). The settings on record: for pEC50: alphascreen, activation of FXR binding reaction with steroid receptor coactivator, read-out: FXR enzyme activity EC50; for Emax: read-out: FXR enzyme activity Efficacy (activation efficacy percent). On the procedure:
FXR Biochemical Experiment
To test the effect of the compound on the activation of the FXR binding reaction by a Homogenous Proximity Luminescent Amplified Assay (alphascreen).
1. Protein: glutathione-S-transferase-labeled FXR human protein (Invitrogen)
2. Coactivator: biotin-labeled steroid receptor coactivator (Anaspec)
3. Detection reagent: Homogenous Proximity Luminescent Amplified Assay (alphascreen) detection kit (PerkinElmer)
1. Dilution of compounds: The test compound was prepared as a 40 μM DMSO solution, which was then diluted 3-fold to 10 concentration points. The reference compound was prepared as a 400 μM DMSO solution, and then was 1.5-fold diluted to 10 concentration points. The diluted DMSO solution was added to the micro-wells of a 384-well plate at a volume of 150 nl per well.
2. Glutathione-S-transferase-labeled FXR human protein and biotin-labeled steroid receptor coactivator were prepared to a mixed solution at a concentration of 0.4 nM and 30 nM, respectively. The mixed solution was added to the micro-wells of the 384-well plate at a volume of 15 μL per well, and incubated for 1 hour at room temperature.
3. […] The experiment process was protected from light. It was incubated for 1 hour at room temperature.
4. […] The experiment process was protected from light. It was incubated for 1 hour at room temperature.
5. EC50 test: Envision was used to excite at 680 nm and the […] signal at 520-620 nm was read.
6. Data analysis: Data analysis was conducted using Prism 5.0 to calculate the EC50 value of the activation effect of the compound.

The next assay has as its system NASH model. Description: In vivo efficacy test: NASH model in mice by high-fat diet feeding and CCl4 induction. Also on record: species or system C57/BL6 mice. The note with it: intragastric once a day for 28 days; for gene expression of collagen-alpha in the liver: FIG. 3; for total cholesterol (TC) and triglyceride (TG) levels in the liver: FIG. 2. From the text: In this test, NASH model was established on mice by two procedures of high-fat diet feeding and CCl4 induction to test the effects of compounds on treating NASH. Briefly, the modeling process includes feeding C57/BL6 mice with high-fat diet to induce obesity in mice and produce non-alcoholic fatty liver disease; selecting 40 obese mice with a body weight >35 g when >80% of mice reached 35 g or more, continuously feeding with high-fat diet while intraperitoneal injection of CCl4 twice a week for four weeks; as for 10 normal animals in the same batch, feeding intraperitoneally with olive oil as a healthy control. The day when CCl4 feeding was started was set to the 0th day, and the time when CCl4 feeding was started was set to 0th hour. On the day when CCl4 feeding was started, the intragastric administration was started, 5 mL/kg once a day for 4 weeks, namely 28 days. Test doses of the compound were 15 mg/kg, 30 mg/kg, 60 mg/kg, respectively; healthy control and vehicle control were given vehicle 1% hydroxypropyl methylcellulose (HPMC). During the whole experiment period, the animals were weighed and their health was monitored every day. If there are special circumstances, the relevant project leader should be notified in time and the corresponding records should be made. On the 28th day, after all the animals were weighed, they were euthanized after narcotizing and blood collecting, and the liver was taken. After the blood sample was processed into serum, ALT/AST/TG/TC were tested; for parts of the liver samples, liver TG and TC and the relative expression of collagen-1 alpha gene were tested, and for the other part, liver samples was taken for pathological analysis.

[2] abbreviates: highest signal relative to reference compound chenodeoxycholic acid (Examples 1-30).

The structures appear in SMILES notation. pEC50: −log10 of the molar value. Like-named read-outs stand apart in the source and are kept apart here.

The results in this text go back to US11339147B2, “Lactam compound as FXR receptor agonist” (CSPC ZHONGQI PHARMACEUTICAL TECHNOLOGY (SHIJIAZHUANG) CO., …, priority 2017, dated 2022).

`O=C(O)c1cnc(N2C(=O)CCc3cc(OCc4c(-c5c(Cl)cccc5Cl)noc4C4CC4)ccc32)c(F)c1` [Compound 35]: the pEC50 in assay [1] is 8.05. In assay [1] (highest signal relative to reference compound obeticholic acid (Examples 31-47)), the Emax is 161%.

In the case of `O=C(O)c1cc(F)cc(N2C(=O)C3(CC3)c3cc(OCc4c(-c5c(Cl)cccc5Cl)noc4C4CC4)ccc32)c1` [Compound 27], in assay [1], the pEC50 was 6.39. Also, in assay [1] (setting [2]), the Emax is 218%.

Consider `O=C(O)c1ccc(N2C(=O)C3(CC3)c3cc(OCc4c(-c5c(Cl)cncc5Cl)noc4C4CC4)ccc32)cc1` [Compound 29], for which the pEC50 in assay [1] is 6.25. For the same compound, the Emax in assay [1] (setting [2]) stood at 211%.

Turning to `O=C(O)c1ccc(N2C(=O)C3(CC3)c3cc(OCc4c(-c5c(Cl)cccc5Cl)noc4C4CC4)ccc32)nc1` [Compound 3], the pEC50 in assay [1] was 6.74. Besides, the Emax in assay [1] (setting [2]) stood at 165%.

For the compound `CC1(C)C(=O)N(c2ccc(C(=O)O)cc2)c2ccc(OCc3c(-c4c(Cl)cccc4Cl)noc3C3CC3)cc21` [Compound 13], in assay [1], the pEC50 was 7.05. In addition, in assay [1] (setting [2]), the Emax came out at 163%.

As to `O=C(O)c1cnc(N2C(=O)CCc3cc(OCc4c(-c5c(Cl)cccc5Cl)noc4C4CC4)ccc32)c(Cl)c1` [Compound 37], the “blood biochemical ALT/AST indicators” value with NASH model (15 mg/kg, FIG. 1) was “significant decrease”. Besides, the “gene expression of collagen-alpha in the liver” value with NASH model (15 mg/kg) and in the assay on NASH model (60 mg/kg) was “significant decrease” throughout. The “nonalcoholic fatty liver score NAFLD (overall evaluation, pathological tissue analysis)” value with NASH model (15 mg/kg, FIG. 5) was “significant reduction”; with NASH model (60 mg/kg, FIG. 5), “significant reduction”. Moreover, the “total cholesterol (TC) and triglyceride (TG) levels in the liver” value in the assay on NASH model (30 mg/kg) and in the assay with NASH model (60 mg/kg) was “significant decrease” each time. The “liver fibrosis (pathological tissue analysis)” value with NASH model (60 mg/kg, FIG. 4) is “significant reduction”. Further, the “single steatosis, inflammatory molecules and ballooning change” value in the assay on NASH model (60 mg/kg, FIG. 5) is “remarkable efficacy”.

Broadly, the pEC50 is −log10 of the EC50, conventionally taken in molar units.
